For experiment [1], the target named is Glyceraldehyde-3-phosphate dehydrogenase (Homo sapiens, UniProt P04406).
Experiment [2] deals with T1, Bcl-2-related protein A1 (Mus musculus, UniProt Q07440).
T1 sequence (Q07440 whole entry): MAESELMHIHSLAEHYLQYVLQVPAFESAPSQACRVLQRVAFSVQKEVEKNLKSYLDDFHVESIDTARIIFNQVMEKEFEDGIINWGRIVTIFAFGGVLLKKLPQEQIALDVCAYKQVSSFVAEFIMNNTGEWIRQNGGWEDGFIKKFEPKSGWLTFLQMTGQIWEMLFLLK
The experiment in a line: small-molecule antagonists of Bfl-1/BH3 interaction – biochemical, TR-FRET, mouse Bfl-1, confirmation (AID 621).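 Note: TR-FRET binding of GST-Bfl-1 to FITC-labelled Bid peptide via terbium antibody.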 On the technique in general: Time-resolved FRET reads energy transfer from a long-lived donor to a nearby acceptor.

In experiment [3] the target is T1, Bcl-2-related protein A1. Description: Bfl-1 binding inhibitors, SAR follow-up, biochemical, fluorescence polarization (AID 1070). (In fluorescence polarisation assays a small probe gives low polarisation when free and higher when bound to something large.)
Experiment [4] addresses T2, Tyrosine-protein phosphatase non-receptor type 7 (Homo sapiens, UniProt P35236).
T2 sequence (P35236 whole entry): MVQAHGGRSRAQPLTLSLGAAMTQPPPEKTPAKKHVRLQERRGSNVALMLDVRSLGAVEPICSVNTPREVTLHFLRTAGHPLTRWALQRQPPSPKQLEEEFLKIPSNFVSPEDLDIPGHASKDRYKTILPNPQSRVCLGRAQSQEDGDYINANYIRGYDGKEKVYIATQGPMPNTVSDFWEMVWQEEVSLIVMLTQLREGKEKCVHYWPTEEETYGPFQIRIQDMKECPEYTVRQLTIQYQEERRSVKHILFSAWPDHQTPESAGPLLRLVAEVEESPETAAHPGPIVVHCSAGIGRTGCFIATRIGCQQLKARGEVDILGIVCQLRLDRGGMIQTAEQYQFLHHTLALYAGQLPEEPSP
Description: HePTP tyrosine phosphatase activity blockers – biochemical, absorbance, leukemia target, primary screen (AID 521). The format is functional.

The target in experiment [5] is Luciferin 4-monooxygenase (Photinus pyralis, UniProt P08659). Description: Counter Screen for Luciferase-based Assay Positives. [Related pubchem assays: 620, 618, 411 ]. In general terms: The purpose of a counterscreen is to sort out artefacts and off-target activity.
Chain of Luciferin 4-monooxygenase (P08659 whole entry): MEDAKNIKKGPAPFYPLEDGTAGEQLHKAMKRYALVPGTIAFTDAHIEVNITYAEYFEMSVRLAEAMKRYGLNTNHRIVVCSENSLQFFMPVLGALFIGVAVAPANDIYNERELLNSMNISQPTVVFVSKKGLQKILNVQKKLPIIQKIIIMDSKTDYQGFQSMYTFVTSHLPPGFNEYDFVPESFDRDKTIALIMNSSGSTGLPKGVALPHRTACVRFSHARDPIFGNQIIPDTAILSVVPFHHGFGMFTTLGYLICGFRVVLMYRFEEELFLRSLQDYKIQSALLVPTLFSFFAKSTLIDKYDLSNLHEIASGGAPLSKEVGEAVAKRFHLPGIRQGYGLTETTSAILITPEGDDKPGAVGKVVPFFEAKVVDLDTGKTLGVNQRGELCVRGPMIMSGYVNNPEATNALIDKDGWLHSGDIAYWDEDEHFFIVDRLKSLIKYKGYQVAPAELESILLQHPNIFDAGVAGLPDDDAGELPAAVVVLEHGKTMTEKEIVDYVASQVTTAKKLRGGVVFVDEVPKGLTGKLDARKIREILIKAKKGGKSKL
In a further experiment the test system is HT-1080. Description: HT1080 cell viability loss – fluorescence readout (AID 620). The note with it: Homo sapiens. It counts as functional, cell-based.
Experiment [6] has as its target Induced myeloid leukemia cell differentiation protein Mcl-1 (Homo sapiens, UniProt Q07820). It counts as functional.
Experiment [7] in a line: luciferase reporter signal suppression in cells – H4 neuroglioma cells, luminescence, dose response (AID 1990). It counts as functional, cell-based.
Another experiment concerns HeLa. Description: Cytotoxicity counterscreen assay for transcriptional activators of heat shock protein 70 (Hsp70). [Related pubchem assays: 1203, 1252 ]. The format is functional. As to conditions: Homo sapiens.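 Note: cells exposed to compound for 16 hours before readout.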
Experiment [8] concerns BJ. Description: BJ-TERT fibroblast viability loss – cell-based, RAS-independent, luminescence, dose response (AID 1933). It counts as functional. As to conditions: Homo sapiens.
A short description of experiment [9]: A Cell Based Secondary Assay To Explore Cytotoxicity of Compounds that Sensitize Mycobacterium Tuberculosis to Beta-Lactam Antibiotics. It counts as functional.
The nature of experiment [10]: Luminescence Cell-Based Dose Response HTS to Identify Inhibitors of 5'UTR Stem-Loop Driven Prion Protein mRNA Translation in H4 Neuroglioblastoma Cells. [Related pubchem assays: 1827 (Project Summary), 1813 (Primary HTS)]. It counts as functional.
The nature of experiment [11]: alpha-synuclein stem-loop luciferase translation blockers – H4 neuroglioma cells, luminescence, confirmation (AID 1988). It counts as functional, cell-based.
Experiment [12] relates to BJ. Description: cells. It counts as functional, cell-based. The note with it: Homo sapiens.
Experiment [13] concerns BJ. Description: BJ-TERT-LT-ST fibroblast viability loss – cell-based, RAS-independent, luminescence, dose response (AID 1935).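 Note: BJ fibroblasts immortalized with TERT plus LT and ST oncogenes.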 It counts as functional. As to conditions: Homo sapiens.
The nature of experiment [14]: DRD fibroblast viability loss – cell-based, non-viral oncogenic, luminescence, dose response (AID 1934). As to conditions: Homo sapiens. The format is functional.
Experiment [15] is described as follows: HPDE-C7 pancreatic duct cell viability loss – fluorescence, HTS (AID 430). As to conditions: Homo sapiens. The format is functional, cell-based.
Experiment [16] in a line: viability loss of HPDE-C7K cells – cell-based, fluorescence, HTS, primary screen (AID 431). As to conditions: Homo sapiens. It counts as functional.
Experiment [17] can be described thus: Luminescence Cell-Based Dose Retest to Confirm Inhibitors of Cancer Stem Cells. [Related pubchem assays (depositor defined):AID2717, AID2721]. It counts as functional. The note with it: Homo sapiens.
A further experiment deals with INS1. Description: INS-1E survival protection against cytokine death – cell-based, luminescence, retest, dose response (AID 449756).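 Note: cell death triggered by IL-1 beta plus TNF-alpha plus IFN-gamma mixture; protective hits raise ATP signal compared with cytokine alone wells.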 It counts as functional. The note with it: Rattus norvegicus.

The text below walks through data of ChEMBL document CHEMBL1201862, “PubChem BioAssay data set” (2004).

Activity calls are given as the source filed them. Cut-off read from the data, not from the text of the source, for most assays here: actives have a measured EC50 and inactives only a lower limit. Bounds are passed on as bounds.

Chain of Glyceraldehyde-3-phosphate dehydrogenase (P04406 whole entry): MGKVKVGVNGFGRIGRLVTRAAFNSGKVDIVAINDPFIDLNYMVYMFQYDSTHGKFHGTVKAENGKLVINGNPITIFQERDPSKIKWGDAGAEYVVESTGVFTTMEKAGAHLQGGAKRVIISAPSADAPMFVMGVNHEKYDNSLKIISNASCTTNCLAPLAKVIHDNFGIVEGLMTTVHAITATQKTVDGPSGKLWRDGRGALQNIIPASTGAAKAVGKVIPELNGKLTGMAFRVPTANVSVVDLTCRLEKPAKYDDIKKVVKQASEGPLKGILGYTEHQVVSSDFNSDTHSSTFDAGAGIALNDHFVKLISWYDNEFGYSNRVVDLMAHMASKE
Chain of Induced myeloid leukemia cell differentiation protein Mcl-1 (Q07820 whole entry): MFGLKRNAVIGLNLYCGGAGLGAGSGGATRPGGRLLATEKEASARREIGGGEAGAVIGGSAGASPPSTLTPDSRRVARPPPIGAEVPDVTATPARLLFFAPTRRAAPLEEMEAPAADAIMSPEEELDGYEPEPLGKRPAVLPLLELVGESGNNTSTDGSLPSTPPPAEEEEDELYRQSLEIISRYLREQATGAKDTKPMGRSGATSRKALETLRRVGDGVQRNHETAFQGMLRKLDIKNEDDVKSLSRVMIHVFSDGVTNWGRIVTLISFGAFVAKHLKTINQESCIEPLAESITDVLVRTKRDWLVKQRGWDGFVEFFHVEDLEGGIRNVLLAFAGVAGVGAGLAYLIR

The term IC50 denotes the concentration that inhibits the measured activity by half. For the molecule `O=C1C(Cl)=C(N2CCN(Cc3ccc4c(c3)OCO4)CC2)C(=O)N1c1ccc(Cl)c(Cl)c1`, the half-inhibitory concentration (IC50) in experiment [1] is > 100 µM (not active); at Bcl-2-related protein A1 [2] it was 2.14 µM (active); on Bcl-2-related protein A1 [3] it was 4.07 µM (active).

For the molecule `CCCCNC(=O)c1cc(-c2ccc(OC)c(OC)c2)on1`, in experiment [4], the IC50 was > 100 µM (not active).

For orientation: EC50 means the concentration giving half of the maximal effect. Consider `O=C(Nc1ccc2c(c1)OCCO2)c1cncc(Br)c1`, for which the EC50 in experiment [5] is 12.1 µM (active); with HT-1080 it was > 50 µM (not active).

In the case of `CC(OC(=O)c1cccc(N2C(=O)c3ccccc3C2=O)c1)C(=O)Nc1ccc(N(C)C)cc1` (configuration not stated), the IC50 in experiment [6] is listed as 6.19 µM (not active).

A word on the CC50: it is the concentration giving 50% cytotoxicity. In the case of `C=CCSc1nccc(-c2nn(-c3ccc(C)cc3)ccc2=O)n1`, the EC50 is 9.46 µM (active) in experiment [7]; 15.6 µM (active) with BJ [8]; > 120 µM (not active) in experiment [10]; 7.52 µM (active) in experiment [11]; 111 µM (active) in the experiment on BJ [12]; 90.2 µM (active) with BJ [13]. The EC50 in experiment [14] is 3.51 µM (inconclusive). In addition, the CC50 in the experiment with HeLa is > 33 µM (not active); in experiment [9], 16.7 µM (active).

A word on the AC50: it is the concentration at which the activity in the assay is half-maximal. With `Cc1nc2ccccc2n1-c1nc(-c2ccco2)cc(C(F)(F)F)n1`, the EC50 was > 120 µM (not active) in experiment [7]; 1.28 µM (active) in the experiment with BJ [8]; 9.22 µM (active) in experiment [10]; 5.41 µM (active) in [11]; 23.3 µM (inconclusive) in the experiment with BJ [12]; 2.79 µM (active) in experiment [15]. The EC50 in [16] is 3.09 µM (active); with BJ [13] it was 2.38 µM (inconclusive); in experiment [14], 2.85 µM (active). Also, the figures for the half-maximal activity concentration (AC50) (in [17]; in the experiment with INS1) were 0.82 µM (active) and 1.44 µM (active), respectively.

`Cc1cc(C(F)(F)F)nc(S(C)(=O)=O)n1`: the IC50 (in experiment [1]; against Bcl-2-related protein A1 [2]; at Bcl-2-related protein A1 [3]) was > 100 µM (not active) each time.

As for `CCN(CC)c1ccc(C(=O)OCC(=O)N2CCN(c3ccccc3)CC2)cc1`, the IC50 in [4] is > 100 µM (not active).

As to `CCCOc1c(Br)cc(C(=O)NCC)cc1OC`, the CC50 with HeLa is > 99 µM (not active).
